Tests used:
Assay in all cases: 3' UTR reporter interaction score (median-centred robust z-score of log2 firefly/Renilla activity); higher = less repression of the 3' UTR reporter
Conditions in all cases: HEK293T; 48 h
BRCA2 = tested on: BRCA2
Procedure, shortened: (§1)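 In at least two independent screens, HEK293T cells in 96-well plates (10,000/well) were co-transfected with DharmaFECT Duo using 100 ng firefly luc2P reporter with the gene's 3' UTR, 20 ng Renilla pRL-TK control and 2.5 pmol miRNA mimic, and dual-luciferase activities were read at 48 h. The interaction score, averaged across screens, is the per-plate robust z-score (median, median absolute deviation) of the log firefly/Renilla ratio, median-centred per miRNA, with more negative indicating interaction.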

HRAS = tested on: HRAS
Procedure, shortened: as §1

MYT1L = tested on: MYT1L
Procedure, shortened: as §1

FBXW7 = tested on: FBXW7
Procedure, shortened: as §1

MYC = tested on: MYC
Procedure, shortened: as §1

ZEB2 = tested on: ZEB2
Procedure, shortened: as §1

MYCN = tested on: MYCN
Procedure, shortened: as §1

PHOX2B = tested on: PHOX2B
Procedure, shortened: as §1

NOTCH1 = tested on: NOTCH1
Procedure, shortened: as §1

PHF6 = tested on: PHF6
Procedure, shortened: as §1

RB1 = tested on: RB1
Procedure, shortened: as §1

MYB = tested on: MYB
Procedure, shortened: as §1

TP53 = tested on: TP53
Procedure, shortened: as §1

EZH2 = tested on: EZH2
Procedure, shortened: as §1

Sequence	3' UTR reporter interaction score (BRCA2)	3' UTR reporter interaction score (HRAS)	3' UTR reporter interaction score (MYT1L)	3' UTR reporter interaction score (FBXW7)	3' UTR reporter interaction score (MYC)	3' UTR reporter interaction score (ZEB2)	3' UTR reporter interaction score (MYCN)	3' UTR reporter interaction score (PHOX2B)	3' UTR reporter interaction score (NOTCH1)	3' UTR reporter interaction score (PHF6)	3' UTR reporter interaction score (RB1)	3' UTR reporter interaction score (MYB)	3' UTR reporter interaction score (TP53)	3' UTR reporter interaction score (EZH2)
UAGCACCAUCUGAAAUCGGUU	0.502	0.469	-0.146	-3.02	0.338	-0.458	-3.08	-0.351	0.229	-0.0911	-0.626	0.702	-0.0665	0.717
UAGCACCAUUUGAAAUCAGUGUU	0.947	-0.0949	0.287	-3.34	0.295	0.0122	-3.52	-1.1	0.166	0.425	-0.25	0.253	-0.394	0.729
UAGCACCAUUUGAAAUCGGU	0.875	0.156	-0.0531	-2.01	0.499	-0.664	-3.2	-0.0846	0.946	-0.281	-0.0587	0.262	-0.108	0.53
UAGCAGCACAGAAAUAUUGGC	-0.194	-1.27	-1.5	-1.49	-0.447	2.12	-0.51	0.776	-0.212	1.22	0.887	-2.7	0.439	-0.914
UAGCAGCACAUCAUGGUUUACA	-0.138	-0.34	-3.09	-2.93	0.39	2.82	0.0626	0.488	-0.541	0.453	0.792	-1.34	-0.579	-0.225
UAGCAGCACGUAAAUAUUGGCG	-0.0822	-0.0204	-0.142	-0.915	0.946	0.217	0.0935	-0.629	-0.0927	-0.551	-0.115	0.8	-0.054	0.0745
UAGCAGCGGGAACAGUUCUGCAG	0.681	-0.261	-3.34	-2.86	0.339	0.481	0.142	-0.446	9.71e-17	0.822	0.756	-2.27	1.12	-0.757
UAGCUUAUCAGACUGAUGUUGA	-0.228	-0.166	-0.0152	0.067	-0.465	-0.0716	-0.604	0.355	-0.0874	0.231	0.943	0.65	-0.564	0.437
UAGGCAGUGUCAUUAGCUGAUUG	1.04	1.22	0.837	-1.11	-5.22	-1.58	-3.63	1.92	-2.66	0.274	-0.567	-2.78	0.66	-5.52
UAGGUAGUUUCAUGUUGUUGG	0.216	-0.663	1.55	1.58	-1.91	0.231	-1.16	1.68	-0.0228	-0.281	0.553	-1.52	0.576	-1.54
UAGGUUAUCCGUGUUGCCUUCG	-0.557	0.327	-0.174	-0.104	-0.452	0.258	0.616	0.827	0.0096	1.26	-0.0884	1.02	-0.804	0.345
UAGUACCAGUACCUUGUGUUCA	-0.45	0.088	0.421	0.884	0.000513	1.08	0.174	-0.362	-0.471	-0.322	0.0822	-2.96	-0.292	0.789
UAGUGCAAUAUUGCUUAUAGGGUUU	-0.656	0.0165	0.572	0.629	0.454	-0.0644	0.515	-0.0733	0.766	0.108	1.16	-2.42	-1.04	-1.22
UAUACAAGGGCAAGCUCUCUGU	-0.0857	0.186	0.075	0.144	0.32	-0.506	-1.08	0.912	-0.0974	0.0525	0.0344	0.159	-0.221	-0.739
UAUGCAUUGUAUUUUUAGGUCC	0.674	0.558	-0.778	-0.388	0.248	-1.13	-0.281	-2.52	0.872	-1.28	0.308	-1.29	-0.83	0.224
UAUGGCACUGGUAGAAUUCACUG	0.00324	-0.187	0.00898	0.255	0.422	-2.1	0.735	0.374	-0.295	-1.31	-0.628	0.482	-0.0687	0.196
UAUGGCUUUUCAUUCCUAUGUG	-1.68	-0.329	0.255	0.501	-0.427	0.267	0.938	0.949	0.259	-0.00424	-1.89	-0.208	0.354	0.203
UAUGGCUUUUUAUUCCUAUGUGA	0.03	-0.268	0.172	0.0824	-0.0719	0.676	0.776	-1.06	-0.625	0.879	-0.178	-0.0826	0.14	0.742
UAUGUAAUAUGGUCCACAUCUU	-0.619	-0.0539	1.41	0.706	0.455	-1.16	0.254	0.805	0.765	-0.945	0.421	0.474	-0.793	-0.223
